Data from publication PMC9820345, “Metal Complexes of a 5-Nitro-8-Hydroxyquinoline-Proline Hybrid with Enhanced Water Solubility Targeting Multidrug Resistant Cancer Cells” (International Journal of Molecular Sciences, 2022).

How the values were obtained:
[1] = n-Octanol/water distribution coefficients, shake-flask method; type: physicochemical; conditions: pH 7.40 (20 mM phosphate buffer); 100 mM chloride; 25.0 °C
Method: The traditional shake-flask method was used to obtain distribution coefficients of the ligands as well as of the complexes in n-octanol/buffered aqueous solution (20 mM phosphate, pH = 7.40 or 10 mM MES, pH 5.50) at different chloride ion concentrations (4, 24 and 100 mM) using UV-vis spectrophotometry (Agilent Cary 8454 diode array spectrophotometer, Santa Clara, CA, USA) for the analysis. The measurement and data evaluation were performed as described in our former work.

[2] = system: tested cancer cell lines (MES-SA, MES-SA/Dx5, Colo205, Colo320); experiment: In vitro cytotoxicity, summary over the tested cancer cell lines; type: cell-based; conditions: Homo sapiens, range over MES-SA
Method: The in vitro cytotoxicity of HQNO2-L-Pro and its RuCym and RhCp* complexes was assayed in two chemosensitive and resistant cell pairs to reveal their potential MDR selective toxicity. On the one hand, the parental human uterine sarcoma MES-SA cell line and its P-gp positive MDR derivative MES-SA/Dx5 cell line were applied; on the other hand, the human colon adenocarcinoma Colo205 cell line and its doxorubicin-resistant counterpart, the Colo320 cell line, were involved. The determined IC50 values using 72 h (Colo205 and Colo320) or 144 h incubation time (MES-SA and MES-SA/Dx5) are shown in Table 4. Doxorubicin was used as a control, and IC50 values obtained for the analogous HQCl-L-Pro compounds are also shown for comparison. […] The lower cytotoxicity of HQNO2-L-Pro is most likely due to its very strong hydrophilic features.
Inhibition of the cell growth (expressed as IC50: inhibitory concentration that reduces by 50% the growth of the cells exposed to the tested compounds) was determined from the sigmoid curve where 100 − ((ODsample − ODmedium control)/(ODcell control − ODmedium control)) × 100 values were plotted against the logarithm of compound concentrations. […]

[3] = Formation constants of Zn(II) complexes by UV-vis spectrophotometric titrations; type: physicochemical; conditions: I = 0.1 M KCl, 25.0 °C, data evaluated at pH < 8
Method: Complexation of HQNO2-L-Pro with Zn(II) was studied by UV-vis and ^1H NMR spectroscopy (Figure 6). Comparing the UV-vis spectra recorded for the ligand in the presence and in the absence of Zn(II) with increasing pH, complex formation was evident from the UV-vis spectral changes at pH < ~8; however, in the basic pH range the spectra resembled more and more those of the free ligand. Based on the spectra recorded at pH < 8, formation constants for species [Zn(HL)]^+ and [Zn(HL)2] were determined (Table 2).
An Agilent Cary 8454 diode array spectrophotometer (Santa Clara, CA, USA) was used to obtain UV-vis spectra in the wavelength range 200–1000 nm, while spectra were recorded for the Fe(II)-containing samples using an Avantes (Avantes B.V., Apeldoorn, The Nederlands) AvaSpec-ULS2048CL-EVO spectrometer with an AvaLight-DHc light source and FDP-7UVIR200-2-VAR transmission dip probe. The titrations for the Fe(II)-containing samples were performed in a laboratory glove box (GP(Campus), Jacomex) (O2 content ≤ 1 ppm). The path length (ℓ) was 1 cm in most cases (the actual ℓ is always indicated in the legends of the figures). The concentrations of the ligands and complexes were between 40 and 200 µM, and 0.2 M KNO3 for the organometallic complexes or 0.1 M KCl for the Fe(II/III), Cu(II), and Zn(II) complexes were used to adjust the constant ionic strength. […]

logβ [M(HL)2] [3]	logβ [M(HL)] [3]	SMILES	log D7.4 [1]	IC50 [2] [µM]
–	–	Cc1ccc(C(C)C)cc1.O=C(O)[C@@H]1CCC[NH+]1Cc1cc([N+](=O)[O-])c2ccc[n+]3c2c1[O][Ru-]3[Cl].[Cl-] [RuCym-HQNO2-L-Pro, [RuCym(HQNO2-L-Pro)Cl]Cl]	+0.06 ± 0.01	–
33.71 ± 0.06	17.36 ± 0.03	O=C(O)[C@@H]1CCCN1Cc1cc([N+](=O)[O-])c2cccnc2c1O [HQNO2-L-Pro, (2S)-1-((8-hydroxy-5-nitroquinolin-7-yl)methyl)pyrrolidin-1-ium-2-carboxylate]	–	32.4 to 226
